Experiments:
AChE = AChE (Homo sapiens, UniProt P22303); assay: biochemical; assay type: biochemical; settings: for increase of AChE inhibition relative to the unsubstituted nitropyridazine: vs JWS
BuChE = BuChE (Homo sapiens, UniProt P06276); assay: biochemical
[1] = Chemical decomposition on storage; assay type: physicochemical; settings: estimated, after 6 months; nitro replaced by hydroxyl
M2 receptor = target: T1, M2 receptor (Homo sapiens, UniProt P08172); settings: read-out: M2 receptors IC50; previous studies; cited from earlier work
T1 sequence (P08172 1-466): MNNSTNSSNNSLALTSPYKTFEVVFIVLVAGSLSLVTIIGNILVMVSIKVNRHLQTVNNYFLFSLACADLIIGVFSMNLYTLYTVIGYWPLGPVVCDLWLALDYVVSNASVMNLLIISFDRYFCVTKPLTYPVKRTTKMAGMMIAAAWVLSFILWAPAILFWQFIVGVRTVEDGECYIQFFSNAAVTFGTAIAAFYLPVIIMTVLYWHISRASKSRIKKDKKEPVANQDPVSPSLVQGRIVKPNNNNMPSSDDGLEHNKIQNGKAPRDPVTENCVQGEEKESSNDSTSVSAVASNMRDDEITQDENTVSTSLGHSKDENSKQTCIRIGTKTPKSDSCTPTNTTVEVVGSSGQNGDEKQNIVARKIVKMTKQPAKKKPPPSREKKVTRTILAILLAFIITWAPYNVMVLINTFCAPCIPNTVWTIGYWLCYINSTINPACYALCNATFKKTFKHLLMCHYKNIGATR

Chain of AChE (P22303 32-614): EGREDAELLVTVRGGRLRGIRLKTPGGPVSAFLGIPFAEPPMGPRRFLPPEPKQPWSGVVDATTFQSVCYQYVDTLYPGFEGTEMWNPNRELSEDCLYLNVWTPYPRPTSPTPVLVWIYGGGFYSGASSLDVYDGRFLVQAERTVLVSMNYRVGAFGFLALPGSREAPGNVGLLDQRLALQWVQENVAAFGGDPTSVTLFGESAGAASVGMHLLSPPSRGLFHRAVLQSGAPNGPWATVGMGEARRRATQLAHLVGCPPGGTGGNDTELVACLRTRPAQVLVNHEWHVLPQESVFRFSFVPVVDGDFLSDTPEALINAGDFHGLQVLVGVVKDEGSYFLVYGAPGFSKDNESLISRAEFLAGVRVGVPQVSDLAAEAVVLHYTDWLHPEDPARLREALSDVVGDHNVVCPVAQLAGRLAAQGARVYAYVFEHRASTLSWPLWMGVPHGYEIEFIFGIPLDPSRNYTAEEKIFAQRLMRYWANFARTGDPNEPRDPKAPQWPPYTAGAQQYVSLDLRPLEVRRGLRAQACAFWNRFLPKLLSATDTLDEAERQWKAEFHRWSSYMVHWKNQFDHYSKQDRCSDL
Chain of BuChE (P06276 29-602): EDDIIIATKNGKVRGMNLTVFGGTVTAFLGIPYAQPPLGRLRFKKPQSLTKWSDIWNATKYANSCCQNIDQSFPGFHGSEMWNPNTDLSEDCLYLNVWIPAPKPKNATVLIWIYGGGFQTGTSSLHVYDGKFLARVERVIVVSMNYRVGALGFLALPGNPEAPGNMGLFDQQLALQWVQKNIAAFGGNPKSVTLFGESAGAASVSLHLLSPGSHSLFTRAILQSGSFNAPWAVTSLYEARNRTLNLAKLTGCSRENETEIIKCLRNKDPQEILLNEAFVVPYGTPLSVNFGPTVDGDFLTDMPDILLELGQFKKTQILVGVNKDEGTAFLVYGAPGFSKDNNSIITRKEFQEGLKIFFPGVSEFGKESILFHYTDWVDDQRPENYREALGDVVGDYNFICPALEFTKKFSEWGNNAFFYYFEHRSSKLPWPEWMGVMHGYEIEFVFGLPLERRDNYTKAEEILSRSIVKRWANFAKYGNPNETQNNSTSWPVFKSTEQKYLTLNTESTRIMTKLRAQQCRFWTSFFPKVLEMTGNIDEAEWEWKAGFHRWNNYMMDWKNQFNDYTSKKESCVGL

SMILES | IC50 (BuChE) | IC50 (AChE) | also measured
Cc1c(-c2ccccc2)nnc(NCCSCc2ccc(CN(C)C)o2)c1[N+](=O)[O-] [Compound 10] |  |  | increase of AChE inhibition relative to the unsubstituted nitropyridazine (AChE): ~3 fold
CN(C)Cc1ccc(CSCCNc2nnc(-c3ccccc3)c(-c3ccccc3)c2[N+](=O)[O-])o1 [Compound 12] |  |  | increase of AChE inhibition relative to the unsubstituted nitropyridazine (AChE): ~3 fold
CN(C)Cc1ccc(CSCCNc2ccc(Cl)nn2)o1 [Compound 16] | > 50 µM |  | 
CN(C)Cc1ccc(CSCCNc2nc(N)no2)o1 [Compound 17] | > 50 µM | > 50 µM | 
CN(C)Cc1ccc(CSCCNc2nc(N)n[nH]2)o1 [Compound 18] | > 50 µM | > 50 µM | 
CS/C(=N\S(=O)(=O)c1ccc(C)cc1)NCCSCc1ccc(CN(C)C)o1 [Compound 22] | > 50 µM | > 50 µM | 
Cc1ccc(S(=O)(=O)NCCSCc2ccc(CN(C)C)o2)cc1 [Compound 23] |  | > 50 µM | 
CN(C)Cc1ccc(CSCCNC(=O)c2ccccc2-c2ccccc2C(=O)O)o1 [Compound 24] | > 50 µM | > 50 µM | 
Cc1cccc(Nc2ccccc2C(=O)NCCSCc2ccc(CN(C)C)o2)c1C [Compound 25] | > 50 µM | > 50 µM | 
CN(C)Cc1ccc(CSCCN2C(=O)CCC2=O)o1 [Compound 27] | > 50 µM |  | 
CC1CC(=O)N(CCSCc2ccc(CN(C)C)o2)C1=O (centres unmarked) [Compound 28] | > 50 µM |  | 
CN(C)Cc1ccc(CSCCN2C(=O)c3ccc([N+](=O)[O-])cc3C2=O)o1 [Compound 31] | > 50 µM |  | 
CN(C)Cc1ccc(CSCCN2C(=O)c3cccc4cc([N+](=O)[O-])cc(c34)C2=O)o1 [Compound 33] |  |  | fold less active than donepezil (AChE) (AChE; vs donepezil IC50 = 0.050 µM): 3 fold
CN(C)Cc1ccc(CSCCNc2nnccc2[N+](=O)[O-])o1 [JWS, N-(2-(((5-((dimethylamino)methyl)furan-2-yl)methyl)thio)ethyl)-4-nitropyridazin-3-amine] |  |  | chemical decomposition [1]: about 10%; IC50 (M2 receptor): 0.06 µM

From paper PMC5185470 (Bioorganic & medicinal chemistry letters, 2016)
